In patent US9765054B2, “Histone deacetylase inhibitors and compositions and methods of use thereof” (CHDI Foundation, Inc., priority 2011, dated 2017) one finds IC50 data, which are given here for twelve compounds.

Assay [1] deals with human catalytic domain HDAC4 protein (Homo sapiens, UniProt P56524, A743G/DEL730-739/DEL742-742). Put plainly: Inhibition of HDAC4 catalytic domain enzymatic activity, Boc-Lys(Tfa)-AMC substrate, fluorescence.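 Further: trypsin releases AMC from deacetylated substrate, fluorescence tracks enzyme activity, 15 min reaction at 37 °C, 100% activity defined by DMSO-only control.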 Particulars: Class IIa selective substrate Boc-Lys(Tfa)-AMC, read-out: Biochemical HDAC-4 IC50.
Assay [2] relates to cellular histone deacetylase enzymatic activity in Jurkat E6-1 cells. The assay is described as follows: Inhibition of cellular HDAC activity, Boc-Lys(Tfa)-AMC substrate, in Jurkat E6-1 cells. It is filed as cell-based. Particulars: Homo sapiens, Class IIa selective substrate Boc-Lys(Tfa)-AMC. From the text: The potency of Class IIa Histone Deacetylase (HDAC) inhibitors is quantified by measuring the cellular histone deacetylase enzymatic activity using the Class IIa selective substrate, Boc-Lys(Tfa)-AMC. After penetration in Jurkat E6-1 cells, the substrate is deacetylated to Boc-Lys-AMC. After cell lysis and cleavage by trypsin, the fluorophore AMC is released from the deacetylated substrate only. The fluoresence of the sample is directly related to the histone deacetylase activity in the sample.
Jurkat E6.1 Cell Culture and Plating.
Jurkat E6.1 cells are cultured according to standard cell culture protocols in Jurkat E6.1 Growth Media (RPMI without phenol red, 10% FBS, 10 mM HEPES, and 1 mM Sodium Pyruvate). Jurkat E6.1 cells are counted using a Coulter Counter and resuspended in Jurkat E6.1 growth media at a concentration of 75,000 cells/35 μl. 35 μl or 75,000 cells is seeded into Greiner microtitre assay plates. The plates are then incubated at 37° C. and 5% CO2 while other assay components are being prepared.
Serially Dilute HDAC Inhibitor Compounds.
Serial dilutions of the HDAC inhibitors and control reference compound (1-(5-(3-((4-(1,3,4-oxadiazol-2-yl)phenoxy)methyl)-1,2,4-oxadiazol-5-yl)thiophen-2-yl)-2,2,2-trifluoroethanone) are made by first resuspending the lyophilized compound to a final concentration of 10 mM in 100% DMSO. Stocks of 70 μl aliquots of the 10 mM compound in DMSO are prepared and stored at −20° C. From one stock aliquot of each compound to be tested and the reference compound, a 16-point serial dilution is prepared according to Table 7 using a 125 μl 16-channel Matrix multi-channel pipette.
2 μl (200×) of each diluted solution and each control (full activity: 100% DMSO alone or full inhibition 1 mM) is stamped into V-bottom polypropylene 384-well compound plates using either the Bravo, Janus, or […] 16-channel Matrix multi-channel pipette. Each well with the 200× compound solution is diluted 1:20 by the addition of 38 μl Jurkat assay buffer+DMSO (9.5% DMSO, RPMI without phenol red, 0.09% FBS, 9 mM Hepes, and 0.9 mM Sodium Pyruvate equilibrated to room temperature)
Prepare 5× (500 μM) Boc-Lys(Tfa)-AMC Substrate.
5× (500 μM) substrate is prepared just prior to the addition to the assay. The 5× substrate is prepared by diluting a 100 mM Boc-Lys(Tfa)-AMC in DMSO solution 1:200 by adding it drop-wise to Jurkat assay medium (RPMI without phenol red, 0.1% FBS, 10 mM Hepes, and 1 mM Sodium Pyruvate equilibrated to 37° C.) while vortexing at slow speed to prevent precipitation.
10 ml of 3× lysis buffer is prepared with 8.8 ml of 3× stock lysis buffer (50 mM Tris-HCl, pH 8.0, 137 mM NaCl, 2.7 mM KCl, 1 mM MgCl2, 1% Nonidet P40 Substitute equilibrated to room temperature) and 1.2 ml of 3 mg/ml Trypsin equilibrated to room temperature.
5 μl of each solution of 1:20 diluted compound from above is transferred to the Greiner microtitre assay plates with 75,000 cells/well using the Bravo. Cells are then incubated for 2 hours at 37° C. and 5% CO2. The assay is then started by adding 10 μl of 5× (500 μM) substrate to the assay plate using either the Bravo or 16-channel Matrix multi-channel pipette. The cells are then incubated for 3 hours at 37° C. and 5% CO2. Next, 25 μl of 3× lysis buffer is added to each well using either the 125 μl 16 channel pipette or the Bravo. The assay plate is then incubated overnight (15-16 hours) at 37° C. and 5% CO2. The following day, the plates are shaken on an orbital shaker for 1 minute at 900 rpm. Finally the top read fluorescence (Excitation: 355 nm, Emission: 460 nm) is measured using PerkinElmer EnVision.

SMILES strings stand for the structures.

As usually defined, the IC50 is the midpoint of a concentration-inhibition curve. On to `O=C(NO)[C@@H]1[C@H](c2ccccc2)[C@H]1c1ccc(-c2ncc(C3CC3)cn2)cc1` (racemic) [Compound 50c, (1R*,2R*,3R*)-2-(4-(5-Cyclopropylpyrimidin-2-yl)phenyl)-N-hydroxy-3-phenylcyclopropanecarboxamide], for which the half-maximal inhibitory concentration (IC50) amounted to 220 nM in assay [1] and 810 nM in assay [2].

Regarding `O=C(NO)[C@@H]1[C@H](c2ccccc2)[C@H]1c1ccc(C2=CCN(Cc3ccccc3)CC2)cc1` [Compound 71, (1R,2R,3R)-2-(4-(1-Benzyl-1,2,3,6-tetrahydropyridin-4-yl)phenyl)-N-hydroxy-3-phenylcyclopropanecarboxamide], the IC50 in assay [1] amounted to 350 nM; in assay [2], 750 nM.

As for `CN1CCOc2cc(-c3ccc([C@H]4[C@H](C(=O)NO)[C@@H]4c4ccccc4)cc3)ccc21` [Compound 54c, (1R,2R,3R)—N-hydroxy-2-(4-(4-methyl-3,4-dihydro-2H-benzo[b][1,4]oxazin-7-yl)phenyl)-3-phenylcyclopropanecarboxamide], the IC50 in assay [1] was 260 nM; in assay [2], 1430 nM.

In the case of `O=C(NO)[C@@H]1[C@H](c2ccccc2)[C@H]1c1cccc(N2CCC(N3CCCC3)CC2)c1` (racemic) [Compound 56g, (1R*,2R*,3R*)—N-Hydroxy-2-phenyl-3-(3-(4-(pyrrolidin-1-yl)piperidin-1-yl)phenyl)cyclopropanecarboxamide], the IC50 in assay [1] turned out to be 390 nM; in assay [2] it was 2180 nM.

As to `O=C(NO)[C@@H]1[C@H](c2ccccc2)[C@H]1c1ccccc1Br` (racemic) [Compound 16a, (1R*,2R*,3R*)-2-(2-Bromophenyl)-N-hydroxy-3-phenylcyclopropanecarboxamide], the IC50 was determined as 620 nM in assay [1] and 6530 nM in assay [2].

Take `O=C(NO)[C@@H]1[C@H](c2ccccc2)[C@H]1c1ccc(-c2cnc(-c3ccccc3)o2)cc1` (racemic) [Compound 48, (1R*,2R*,3R*)—N-Hydroxy-2-phenyl-3-(4-(2-phenyloxazol-5-yl)phenyl)cyclopropanecarboxamide]: the figures for the IC50 in assay [1] and in assay [2] were 280 nM and 1260 nM, respectively.

As to `O=C(NO)[C@@H]1[C@H](c2ccccc2)[C@H]1c1ccc(Br)cc1` (racemic) [Compound 16c, (1R*,2R*,3R*)-2-(4-Bromophenyl)-N-hydroxy-3-phenylcyclopropanecarboxamide], the figures for the IC50 in assay [1] and in assay [2] were 370 nM and 2870 nM, respectively.

As to `Cc1cccc([C@H]2[C@H](C(=O)NO)[C@@H]2c2ccccc2)c1` (racemic) [Compound 18b, (1R*,2R*,3R*)—N-Hydroxy-2-phenyl-3-m-tolylcyclopropanecarboxamide], the IC50 was determined as 150 nM in assay [1] and 2740 nM in assay [2].

In the case of `O=C(NO)[C@@H]1[C@H](c2ccccc2)[C@H]1c1ccc(-c2ccnnc2)cc1` (racemic) [Compound 50g, (1R*,2R*,3R*)—N-Hydroxy-2-phenyl-3-(4-(pyridazin-4-yl)phenyl)cyclopropanecarboxamide], the results for the IC50 in assay [1] and in assay [2] were 110 nM and 660 nM, respectively.

Take `CC(C)N1CCN(c2cccc([C@H]3[C@H](C(=O)NO)[C@@H]3c3ccccc3)c2)CC1` (racemic) [Compound 56b, (1R*,2R*,3R*)—N-Hydroxy-2-(3-(4-isopropylpiperazin-1-yl)phenyl)-3-phenylcyclopropanecarboxamide]: the IC50 came to 1430 nM in assay [1] and 5080 nM in assay [2].

In the case of `O=C(NO)[C@@H]1[C@H](c2ccccc2)[C@H]1c1ccc(-c2ccc(-n3c4ccccc4c4ccccc43)cc2)cc1` (racemic) [Compound 54b, (1R*,2R*,3R*)-2-(4′-(9H-carbazol-9-yl)-[1,1′-biphenyl]-4-yl)-N-hydroxy-3-phenylcyclopropanecarboxamide], the IC50 in assay [1] amounted to 5660 nM; in assay [2], 50000 nM.

For the compound `O=C(NO)[C@@H]1[C@H](c2ccccc2)[C@H]1c1cnn(-c2ccc(C(F)(F)F)cn2)c1` [Compound 92b, (1R,2R,3R)—N-Hydroxy-2-phenyl-3-(1-(5-(trifluoromethyl)pyridin-2-yl)-1H-pyrazol-4-yl)cyclopropanecarboxamide], the figures for the IC50 in assay [1] and in assay [2] were 180 nM and 1170 nM, respectively.
